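Step 1: Grow cells in 96-well plates. Step 2: Expose to compound for 48 hours at 5 concentrations. Step 3: Interpolate endpoints linearly; if unreached, use highest concentration. The concentration for 50% growth inhibition is given as GI50.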 Calls of active or inactive are those of the source. Cut-off read from the data, not from the text of the source: active = GI50 up to about 1.1 µM and inactive = higher.
How the values were obtained:
Test in all cases: NCI tumour cell line growth inhibition, 48 h
M14 = system: M14
SK-MEL-2 = system: SK-MEL-2
SNB-19 = system: SNB-19
NCI-H460 = system: NCI-H460
SR = system: SR
PC-3 = system: PC-3
U-251 = system: U-251
ACHN = system: ACHN
DU-145 = system: DU-145
SNB-75 = system: SNB-75
NCI-H522 = system: NCI-H522
SN12C = system: SN12C
HOP-92 = system: HOP-92
MDA-MB-231 = system: MDA-MB-231
CCRF-CEM = system: CCRF-CEM
K562 = system: K562
COLO 205 = system: COLO 205
LOX IMVI = system: LOX IMVI
SK-MEL-5 = system: SK-MEL-5
MDA-MB-435 = system: MDA-MB-435

Row | Structure (SMILES) | GI50 (M14) | GI50 (SK-MEL-2) | GI50 (SNB-19) | GI50 (NCI-H460) | GI50 (SR) | GI50 (PC-3) | GI50 (U-251) | GI50 (ACHN) | GI50 (DU-145) | GI50 (SNB-75) | GI50 (NCI-H522) | GI50 (SN12C) | GI50 (HOP-92) | GI50 (MDA-MB-231) | GI50 (CCRF-CEM) | GI50 (K562) | GI50 (COLO 205) | GI50 (LOX IMVI) | GI50 (SK-MEL-5) | GI50 (MDA-MB-435)
1 | Cc1ccc(CSC(=N)Nc2ccccc2)cc1C | 19.1 µM (inactive) | 16.7 µM (inactive) | 23.7 µM (inactive) | 18.6 µM (inactive) | 19.5 µM (inactive) | 22.5 µM (inactive) | 16.1 µM (inactive) | 33.3 µM (inactive) | 20.7 µM (inactive) | 25.8 µM (inactive) | 15.8 µM (inactive) | 18.9 µM (inactive) | 16 µM (inactive) | 16.2 µM (inactive) | 20.2 µM (inactive) | 21.2 µM (inactive) | 16.3 µM (inactive) | 18.9 µM (inactive) | 16.1 µM (inactive) | 15.2 µM (inactive)
2 | Cc1cn([C@@H]2C[C@H]2CO)c(=O)[nH]c1=O | > 100 µM (inactive) | > 100 µM (inactive) | > 100 µM (inactive) | > 100 µM (inactive) | > 100 µM (inactive) | > 100 µM (inactive) | > 100 µM (inactive) | > 100 µM (inactive) | > 100 µM (inactive) | > 100 µM (inactive) | > 100 µM (inactive) | > 100 µM (inactive) | > 100 µM (inactive) | > 100 µM (inactive) | > 100 µM (inactive) | > 100 µM (inactive) | > 100 µM (inactive) | > 100 µM (inactive) | > 100 µM (inactive) | > 100 µM (inactive)
3 | CC(=O)Nc1ccc2c3c(cc(O)c2c1)N(C(=O)CCCC(=O)N1CC(CCl)c2c1cc(O)c1cc(NC(C)=O)ccc21)CC3CCl (stereo not drawn) | < 0.01 µM (active) | < 0.01 µM (active) | < 0.01 µM (active) | < 0.01 µM (active) | < 0.01 µM (active) | 0.0129 µM (active) | < 0.01 µM (active) | < 0.01 µM (active) | < 0.01 µM (active) | < 0.01 µM (active) | < 0.01 µM (active) | < 0.01 µM (active) | 0.0199 µM (active) | < 0.01 µM (active) | < 0.01 µM (active) | < 0.01 µM (active) | 0.0154 µM (active) | < 0.01 µM (active) | 0.0108 µM (active) | < 0.01 µM (active)
4 | Cc1cc(=O)oc2cc(O)ccc12 [HYMECROMONE] | – | > 100 µM (inactive) | > 100 µM (inactive) | > 100 µM (inactive) | 69 µM (inactive) | > 100 µM (inactive) | > 100 µM (inactive) | > 100 µM (inactive) | > 100 µM (inactive) | 39.1 µM (inactive) | > 100 µM (inactive) | > 100 µM (inactive) | 79.8 µM (inactive) | > 100 µM (inactive) | > 100 µM (inactive) | > 100 µM (inactive) | > 100 µM (inactive) | > 100 µM (inactive) | > 100 µM (inactive) | > 100 µM (inactive)
5 | COc1ccc(P2(=S)SP(=S)(c3ccc(Cl)cc3)S2)cc1 (stereo not drawn) | > 100 µM (inactive) | > 100 µM (inactive) | > 100 µM (inactive) | > 100 µM (inactive) | > 100 µM (inactive) | > 100 µM (inactive) | > 100 µM (inactive) | > 100 µM (inactive) | > 100 µM (inactive) | > 100 µM (inactive) | > 100 µM (inactive) | > 100 µM (inactive) | > 100 µM (inactive) | > 100 µM (inactive) | > 100 µM (inactive) | – | > 100 µM (inactive) | > 100 µM (inactive) | > 100 µM (inactive) | > 100 µM (inactive)
6 | O=C1C(Cl)=C(Nc2ccc(S(=O)(=O)Nc3ccccn3)cc2)C(=O)c2ccccc21 | 5.93 µM (inactive) | 5.7 µM (inactive) | 16.4 µM (inactive) | 4.53 µM (inactive) | 3.03 µM (inactive) | 12.8 µM (inactive) | 5.6 µM (inactive) | 10.6 µM (inactive) | 7.91 µM (inactive) | 7.91 µM (inactive) | 5.02 µM (inactive) | 11.3 µM (inactive) | 5.7 µM (inactive) | 6.89 µM (inactive) | 3.68 µM (inactive) | 2.23 µM (inactive) | 13.9 µM (inactive) | 1.78 µM (inactive) | 4.4 µM (inactive) | 6.55 µM (inactive)
7 | CC1=C(C(=O)Nc2ccccc2)C(c2ccc(C)o2)C(C#N)=C(SCc2ccccc2)N1 (stereo not drawn) | > 100 µM (inactive) | > 100 µM (inactive) | > 100 µM (inactive) | > 100 µM (inactive) | 4.75 µM (inactive) | > 55.8 µM (inactive) | > 100 µM (inactive) | > 100 µM (inactive) | > 100 µM (inactive) | > 100 µM (inactive) | 9.55 µM (inactive) | > 100 µM (inactive) | 5.25 µM (inactive) | > 100 µM (inactive) | 13.2 µM (inactive) | 14.4 µM (inactive) | 31.3 µM (inactive) | > 100 µM (inactive) | 34.5 µM (inactive) | 4.58 µM (inactive)
